Measured values reported in patent US9000025B2, “Autotaxin inhibitors and uses thereof” (Amira Pharmaceuticals, Inc., priority 2010, dated 2015).

Target: T1, autotaxin (ATX) (Homo sapiens, UniProt Q13822)
T1 construct: conditioned medium from the human melanoma cell line, MDA-MB-4355, which endogenously expresses autotaxin; host or cells: MDA-MB-435S human melanoma cells; serum-free conditioned medium, concentrated 20-fold
Experiment: Native Autotaxin Choline Release Assay
Assay type: biochemical
Conditions: autotaxin in conditioned medium from human melanoma cell line; choline released from LPC; read-out: MDA-MB-435S Assay IC50
Method in brief: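 Native ATX from conditioned serum-free, phenol-red-free DMEM of confluent cells cultured 48 h; LPC as substrate. Released choline detected with choline oxidase/peroxidase/4-aminoantipyrine colour mix in 50 mM Tris pH 8, 10 min at 37 °C, absorbance 555 nm; choline quantified against standard curve, equated to LPA formed.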

SMILES | IC50
Cc1c(Sc2cccc(C(C)C(=O)O)c2)c2ccc(Cl)cc2n1-c1cccnc1 (stereo not shown) [Compound 3-20, 2-[3-(6-Chloro-2-methyl-1-pyridin-3-yl-1H-indol-3-ylsulfanyl)-phenyl]-propionic acid] | < 300 nM
CCn1cc(-n2c(C)c(Sc3cccc(C(=O)O)c3)c3ccc(Cl)c(C)c32)cn1 [Compound 3-21, 3-[6-Chloro-1-(1-ethyl-1H-pyrazol-4-yl)-2,7-dimethyl-1H-indol-3-ylsulfanyl]-benzoic acid] | < 300 nM
Cc1cncc(-n2c(C)c(Sc3cccc(C(=O)O)c3)c3ccc(Cl)c(F)c32)c1 [Compound 3-22, 3-[6-Chloro-7-fluoro-2-methyl-1-(5-methyl-pyridin-3-yl)-1H-indol-3-ylsulfanyl]-benzoic acid] | < 300 nM
Cc1c(Sc2cccc(C(=O)O)c2)c2ccc(Cl)c(F)c2n1-c1cnn(-c2ccccc2)c1 [Compound 3-23, 3-[6-Chloro-7-fluoro-2-methyl-1-(1-phenyl-1H-pyrazol-4-yl)-1H-indol-3-ylsulfanyl]-benzoic acid] | < 300 nM
CCCn1cc(-n2c(C)c(Sc3cccc(C(=O)O)c3)c3ccc(Cl)c(F)c32)cn1 [Compound 3-24, 3-[6-Chloro-7-fluoro-2-methyl-1-(1-propyl-1H-pyrazol-4-yl)-1H-indol-3-ylsulfanyl]-benzoic acid] | < 300 nM
CCc1cncc(-n2c(C)c(Sc3cccc(C(=O)O)c3)c3ccc(Cl)c(F)c32)c1 [Compound 3-25, 3-[6-Chloro-1-(5-ethyl-pyridin-3-yl)-7-fluoro-2-methyl-1H-indol-3-ylsulfanyl]-benzoic acid] | < 300 nM
CCn1cc(-n2c(C)c(Sc3cccc(C(=O)O)c3)c3cc(F)c(Cl)cc32)cn1 [Compound 3-26, 3-[6-Chloro-1-(1-ethyl-1H-pyrazol-4-yl)-5-fluoro-2-methyl-1H-indol-3-ylsulfanyl]-benzoic acid] | < 300 nM
CCCn1cc(-n2c(C)c(Sc3cccc(C(=O)O)c3)c3cc(F)c(Cl)cc32)cn1 [Compound 3-27, 3-[6-Chloro-5-fluoro-2-methyl-1-(1-propyl-1H-pyrazol-4-yl)-1H-indol-3-ylsulfanyl]-benzoic acid] | < 300 nM
CCn1cc(-n2c(C)c(Sc3cccc(CC(=O)O)c3)c3ccc(Cl)c(F)c32)cn1 [Compound 3-28, {3-[6-Chloro-1-(1-ethyl-1H-pyrazol-4-yl)-7-fluoro-2-methyl-1H-indol-3-ylsulfanyl]-phenyl}-acetic acid] | < 300 nM
CCn1cc(-n2c(C)c(Sc3cccc(C(=O)NS(C)(=O)=O)c3)c3ccc(Cl)c(F)c32)cn1 [Compound 3-29, N-{3-[6-Chloro-1-(1-ethyl-1H-pyrazol-4-yl)-7-fluoro-2-methyl-1H-indol-3-ylsulfanyl]-benzoyl}-methanesulfonamide] | < 300 nM
CCn1cc(-n2c(C)c(Sc3ccc(CC(=O)O)cc3)c3ccc(Cl)cc32)cn1 [Compound 3-30, {4-[6-Chloro-1-(1-ethyl-1H-pyrazol-4-yl)-2-methyl-1H-indol-3-ylsulfanyl]-phenyl}-acetic acid] | < 300 nM
CCn1cc(-n2c(C)c(Sc3cccc(C(=O)O)c3)c3ccc(C#N)cc32)cn1 [Compound 3-31, 3-[6-Cyano-1-(1-ethyl-1H-pyrazol-4-yl)-2-methyl-1H-indol-3-ylsulfanyl]-benzoic acid] | < 300 nM
Cc1ccc(-n2cc(-n3c(C)c(Sc4cccc(C(=O)O)c4)c4ccc(Cl)c(F)c43)cn2)cc1 [Compound 3-32, 3-[6-Chloro-7-fluoro-2-methyl-1-(1-p-tolyl-1H-pyrazol-4-yl)-1H-indol-3-ylsulfanyl]-benzoic acid] | < 300 nM
Cc1c(Sc2cccc(C(=O)O)c2)c2ccc(Cl)c(F)c2n1-c1cnn(-c2cccc(Cl)c2)c1 [Compound 3-33, 3-{6-Chloro-1-[1-(3-chloro-phenyl)-1H-pyrazol-4-yl]-7-fluoro-2-methyl-1H-indol-3-ylsulfanyl}-benzoic acid] | < 300 nM
Cc1c(Sc2cccc(C(=O)O)c2)c2ccc(Cl)c(F)c2n1-c1cnn(CC2CC2)c1 [Compound 3-34, 3-[6-Chloro-1-(1-cyclopropylmethyl-1H-pyrazol-4-yl)-7-fluoro-2-methyl-1H-indol-3-ylsulfanyl]-benzoic acid] | < 300 nM
Cc1c(Sc2cccc(C(=O)O)c2)c2ccc(Cl)c(F)c2n1-c1cnn(C2CCCC2)c1 [Compound 3-35, 3-[6-Chloro-1-(1-cyclopentyl-1H-pyrazol-4-yl)-7-fluoro-2-methyl-1H-indol-3-ylsulfanyl]-benzoic acid] | < 300 nM
Cc1c(Sc2cccc(C(=O)O)c2)c2ccc(Cl)c(F)c2n1-c1cnn(C2CCC2)c1 [Compound 3-36, 3-[6-Chloro-1-(1-cyclobutyl-1H-pyrazol-4-yl)-7-fluoro-2-methyl-1H-indol-3-ylsulfanyl]-benzoic acid] | < 300 nM

SMILES | IC50
CCCn1cc(-n2c(C)c(Sc3cccc(CC(=O)O)c3)c3ccc(Cl)c(F)c32)cn1 [Compound 3-37, {3-[6-chloro-7-fluoro-2-methyl-1-(1-propyl-1H-pyrazol-4-yl)-1H-indol-3-ylsulfanyl]-phenyl}-acetic acid] | < 300 nM
CCn1cc(-n2c(C)c(Sc3cccc(C(=O)NS(=O)(=O)c4ccccc4)c3)c3ccc(Cl)c(F)c32)cn1 [Compound 3-42, N-{3-[6-Chloro-1-(1-ethyl-1H-pyrazol-4-yl)-7-fluoro-2-methyl-1H-indol-3-ylsulfanyl]-benzoyl}-benzenesulfonamide] | < 300 nM
Cc1c(Sc2cccc(C(=O)O)c2)c2ccc(Cl)c(F)c2n1-c1cnn(C2CC2)c1 [Compound 3-47, 3-[6-Chloro-1-(1-cyclopropyl-1H-pyrazol-4-yl)-7-fluoro-2-methyl-1H-indol-3-ylsulfanyl]-benzoic acid] | < 300 nM
COc1ccc(Cn2cc(-n3c(C)c(Sc4cccc(C(=O)O)c4)c4ccc(Cl)c(F)c43)cn2)cc1 [Compound 3-48, 3-{6-Chloro-7-fluoro-1-[1-(4-methoxy-benzyl)-1H-pyrazol-4-yl]-2-methyl-1H-indol-3-ylsulfanyl}-benzoic acid] | < 300 nM
Cc1c(Sc2cccc(C(=O)O)c2)c2ccc(Cl)c(F)c2n1-c1cn[nH]c1 [Compound 3-49, 3-[6-Chloro-7-fluoro-2-methyl-1-(1H-pyrazol-4-yl)-1H-indol-3-ylsulfanyl]-benzoic acid] | < 300 nM
Cc1c(Sc2cccc(C(=O)O)c2)c2ccc(Cl)c(F)c2n1-c1cnn(CCO)c1 [Compound 3-50, 3-{6-Chloro-7-fluoro-1-[1-(2-hydroxy-ethyl)-1H-pyrazol-4-yl]-2-methyl-1H-indol-3-ylsulfanyl}-benzoic acid] | < 300 nM
CCn1cc(-n2c(C)c(Sc3cccc(C(=O)NS(=O)(=O)C4CC4)c3)c3ccc(Cl)c(F)c32)cn1 [Compound 3-51, cyclopropanesulfonic acid 3-[6-chloro-1-(1-ethyl-1H-pyrazol-4-yl)-7-fluoro-2-methyl-1H-indol-3-ylsulfanyl]-benzoylamide] | < 300 nM
CCn1cc(-n2c(C)c(Sc3cccc(C(=O)O)c3)c3ccc(Cl)c(Cl)c32)cn1 [Compound 3-52, 3-[6,7-Dichloro-1-(1-ethyl-1H-pyrazol-4-yl)-2-methyl-1H-indol-3-ylsulfanyl]-benzoic acid] | < 300 nM
CCCn1cc(-n2c(C)c(Sc3cccc(CC(=O)NS(C)(=O)=O)c3)c3ccc(Cl)cc32)cn1 [Compound 3-53, N-(2-{3-[6-Chloro-2-methyl-1-(1-propyl-1H-pyrazol-4-yl)-1H-indol-3-ylsulfanyl]-phenyl}-acetyl)-methanesulfonamide] | < 300 nM
CCCn1cc(-n2c(C)c(Sc3cccc(CC(=O)NS(=O)(=O)C4CC4)c3)c3ccc(Cl)cc32)cn1 [Compound 3-54, cyclopropanesulfonic acid (2-{3-[6-chloro-2-methyl-1-(1-propyl-1H-pyrazol-4-yl)-1H-indol-3-ylsulfanyl]-phenyl}-acetyl)-amide] | < 300 nM
CCCn1cc(-n2c(C)c(Sc3cccc(CC(=O)NS(=O)(=O)c4ccccc4)c3)c3ccc(Cl)cc32)cn1 [Compound 3-55, N-(2-{3-[6-Chloro-2-methyl-1-(1-propyl-1H-pyrazol-4-yl)-1H-indol-3-ylsulfanyl]-phenyl}-acetyl)-benzenesulfonamide] | < 300 nM
Cc1c(Sc2cccc(C(=O)O)c2)c2ccc(Cl)c(F)c2n1-c1cnn(C(C)C)c1 [Compound 3-56, 3-[6-Chloro-7-fluoro-1-(1-isopropyl-1H-pyrazol-4-yl)-2-methyl-1H-indol-3-ylsulfanyl]-benzoic acid] | < 300 nM
Cc1c(Sc2cccc(C(=O)O)c2)c2ccc(Cl)c(F)c2n1-c1cnn(C)c1 [Compound 3-57, 3-[6-Chloro-7-fluoro-2-methyl-1-(1-methyl-1H-pyrazol-4-yl)-1H-indol-3-ylsulfanyl]-benzoic acid] | < 300 nM
CCn1ccc(-n2c(C)c(Sc3cccc(C(=O)O)c3)c3ccc(Cl)c(F)c32)n1 [Compound 3-58, 3-[6-Chloro-1-(1-ethyl-1H-pyrazol-3-yl)-7-fluoro-2-methyl-1H-indol-3-ylsulfanyl]-benzoic acid] | 300 to 1000 nM
Cc1c(Sc2cccc(C(=O)O)c2)c2ccc(Cl)c(F)c2n1-c1cnn(C(C)(C)C)c1 [Compound 3-60, 3-[1-(1-tert-Butyl-1H-pyrazol-4-yl)-6-chloro-7-fluoro-2-methyl-1H-indol-3-ylsulfanyl]-benzoic acid] | < 300 nM
Cc1cc(-n2c(C)c(Sc3cccc(C(=O)O)c3)c3ccc(Cl)c(F)c32)cs1 [Compound 3-61, 3-[6-Chloro-7-fluoro-2-methyl-1-(5-methyl-thiophen-3-yl)-1H-indol-3-ylsulfanyl]-benzoic acid] | < 300 nM
Cc1ccc(-n2c(C)c(Sc3cccc(C(=O)O)c3)c3ccc(Cl)c(F)c32)s1 [Compound 3-62, 3-[6-Chloro-7-fluoro-2-methyl-1-(5-methyl-thiophen-2-yl)-1H-indol-3-ylsulfanyl]-benzoic acid] | 300 to 1000 nM
